Reference: US20180002400A1, “SHORT PEPTIDE-BASED THERAPEUTIC AGENT AND MEDICINAL COMPOSITION INCLUDING THE SAME FOR INHIBITING ACTIVITIES OF CANCER CELLS” (NATIONAL CHENG KUNG UNIVERSITY, priority 2015, published 2018)

Columns and labels:
Type in all cases: cell-based, human
breast cancer MB231 cell [1] = assay: Sphere formation (cancer stemness) induced by euPTX3; details: short peptide 10 μg/mL or 225 nM + euPTX3 2.5 μg/mL, 2 weeks, FIG. 1C
Experimental: (§1) Each well of the multi-well plate with ultra-low attachment surface (Corning Inc.) was inoculated with the cell density 5×10^3 cells/well of the breast cancer MB231 cell, the lung cancer A549 cell and the nasopharyngeal cancer HONE1 cell, all of which were co-cultured with the short peptides R137, GI40, KT44 (10 μg/mL or 225 nM of the short peptide) and the polypeptide euPTX3 (2.5 μg/mL) of Example 1 in serum-free medium DMEM/F12 (Gibco) [containing B27 (Invitrogen), 20 ng/mL of epidermal growth factor (EGF; Abcam) and 10 ng/mL of basic Fibroblast Growth Factor (bFGF; Peprotech)]. After 2 weeks of cultivation, the cell spheres were observed by optical microscopy.

[2] = tested on: nasopharyngeal cancer HONE1 cell; assay: as above; details: short peptide 10 μg/mL or 225 nM + euPTX3 2.5 μg/mL, 2 weeks, FIG. 3A
Experimental: as §1

lung cancer A549 cell [3] = assay: as above; details: short peptide 10 μg/mL or 225 nM + euPTX3 2.5 μg/mL, 2 weeks, FIG. 2A
Experimental: as §1

breast cancer MB231 cell [4] = assay: MTT cell viability (cell toxicity) of cancer cells co-cultured with short peptides; details: MB231 co-cultured with increasing amount of short peptide for 24 hours or 48 hours; FIG. 1B
Experimental: After the human breast cancer MB231 cell of Example 2 was co-cultured with the short peptides RI37, GI40 and KT44 of Example 1 for 24 hours or 48 hours, the cell toxicity was analyzed by using MTT [3-(4,5-dimethylthiazol-2-yl)-2,5-[…] tetrazolium bomide] (Sigma). The transparent and colorless tetrazolium salt of MTT was degraded by mitochondrial dehydrogenase in live cells and converted to blue formazan crystals. Based on the cell viability of the cell in the absence of the short peptides of Example 1 as 100%, the influence of the cancer cell proliferation could be determined by using the short peptides.

[5] = tested on: nasopharyngeal cancer HONE1 cell; assay: Cancer cell invasion (matrigel-coated insert) induced by euPTX3; details: HONE1; short peptide 10 μg/mL + euPTX3 2.5 μg/mL; FIG. 3C right panel
Experimental: (§2) The cell density 5×10^4 cells/well of the breast cancer MB231 cell, the lung cancer A549 cell and the nasopharyngeal cancer HONE1 cell were seeded into each upper insert of 24-well plate (containing 8-μm pore insert per well; BD Biosciences), the upper insert and the lower well were separated by the polyethelene terephthalate membrane coated with matrigel (purchased from BD Bioscience), and cultured for 3 hours.
(§3) Next, the medium in each upper insert was replaced by serum-free medium, and the medium in each lower well was added with the short peptides RI37, GI40, KT44 and the polypeptide euPTX3 and pPTX3/C of Example 1. The cells inside each upper insert were wiped with cotton swabs and removed after 16 hours of cultivation. Remaining cells that had migrated to the bottom of the insert membrane were stained by 4′, 6-diamidino-2-phenylindole (DAPI; Invitrogen) and calculated under fluorescence microscopy with 200-fold magnification.

lung cancer A549 cell [6] = assay: as above; details: A549; short peptide 10 μg/mL + euPTX3 2.5 μg/mL; FIG. 2C right panel
Experimental: as §2, §3

[7] = tested on: nasopharyngeal cancer HONE1 cell; assay: Drug resistance (CDDP, 5-FU) induced by euPTX3, MTT assay; details: HONE1; short peptide 10 μg/mL or 225 nM + euPTX3 2.5 μg/mL 1 week, then 40 μM CDDP or 100 μM 5-FU 48 hours; FIG. 3B
Experimental: (§4) The cell density 1×10^4 cells/well of the breast cancer MB231 cell, the lung cancer A549 cell and the nasopharyngeal cancer HONE1 cell were co-cultured with the short peptides RI37, GI40 and KT44 (10 μg/mL or 225 nM of the short peptide) and the polypeptide euPTX3 (2.5 μg/mL) of Example 1. After 1 week of cultivation, those cancer cells were added with 40 μM of CDDP or 100 μM of 5-FU respectively and cultured for 48 hours. Based on the cell viability of the cells only co-cultured with the polypeptide euPTX3 (2.5 μg/mL) as 100%, the influence of drug resistance of the cancer cells of Example 2 using the short peptides of Example 1 could be determined according to the aforementioned MTT assay.

lung cancer A549 cell [8] = assay: as above; details: A549; short peptide 10 μg/mL or 225 nM + euPTX3 2.5 μg/mL 1 week, then 40 μM CDDP or 100 μM 5-FU 48 hours; FIG. 2B
Experimental: as §4

[9] = tested on: nasopharyngeal cancer HONE1 cell; assay: Cancer cell migration (Boyden chamber) induced by euPTX3; details: HONE1; short peptide 10 μg/mL + euPTX3 2.5 μg/mL; FIG. 3C left panel
Experimental: (§5) The cell density 5×10^4 cells/well of the breast cancer MB231 cell, the lung cancer A549 cell and the nasopharyngeal cancer HONE1 cell were seeded into each upper insert of 24-well plate (containing 8-μm pore insert per well; BD Biosciences) for 19 hours, and each lower well was added with the short peptides RI37, GI40 and KT44 (10 μg/mL or 225 nM of the short peptide) and the polypeptide euPTX3 (2.5 μg/mL) of Example 1, for evaluating the influence of migration of the cancer cell of Example 2 using several short peptides of Example 1.
(§6) The cell density 5×10^4 cells/well of the breast cancer MB231 cell, the lung cancer A549 cell and the nasopharyngeal cancer HONE1 cell were seeded into each upper insert of Boyden chamber for 3 hours of cultivation.
(§7) And then, the medium in each upper insert was replaced by serum-free medium, and the medium in each lower well was added with the short peptides RI37, GI40, KT44 and the polypeptide euPTX3 of Example 1. The cells inside each upper insert were wiped with cotton swabs and removed after 16 hours of cultivation. Remaining cells that had migrated to the bottom of the insert membrane were stained by 4′,6-diamidino-2-phenylindole (DAPI; Invitrogen) and calculated under fluorescence microscopy with 200-fold magnification.

lung cancer A549 cell [10] = assay: as above; details: A549; short peptide 10 μg/mL + euPTX3 2.5 μg/mL; FIG. 2C left panel
Experimental: as §5, §6, §7

[11] = tested on: drug-resistant breast cancer MB231R (MBR) cells; assay: as above
Experimental: [The procedure below names another cell line; the source lists this cell line under the same test.] as §5, §6, §7

[12] = MB231R (MBR), identical molecular number: euPTX3 2.5 μg/mL, RI37 3.7 μg/mL, GI40 4 μg/mL, pPTX3/C 10 μg/mL, FIG. 5B left panel
[13] = breast cancer cells, short peptide 10 μg/mL + euPTX3 2.5 μg/mL, FIG. 1E left panel

| Substance | number of spheres induced by the polypeptide euPTX3 (breast cancer MB231 cell [1]) | number of spheres induced by the polypeptide euPTX3 [2] | number of spheres induced by the polypeptide euPTX3 (lung cancer A549 cell [3]) | cell viability (breast cancer MB231 cell [4]) | invasive cell numbers induced by the polypeptide euPTX3 [5] | invasive cell numbers induced by the polypeptide euPTX3 (lung cancer A549 cell [6]) | drug resistance induced by the polypeptide euPTX3 (cell viability) [7] | drug resistance induced by the polypeptide euPTX3 (cell viability) (lung cancer A549 cell [8]) | migrated cell numbers induced by the polypeptide euPTX3 [9] | migrated cell numbers induced by the polypeptide euPTX3 (lung cancer A549 cell [10]) | migrated cell numbers induced by the polypeptide euPTX3 [11, 12] | migrated cell numbers induced by the polypeptide euPTX3 [11, 13] |
| --- | --- | --- | --- | --- | --- | --- | --- | --- | --- | --- | --- | --- |
| GI40: artificially synthetic short peptide having the amino acid sequence listed as SEQ ID NO:2, designed from human PTX3 (NP_002843.2) (GGGFDETLAFSGRLTGFNIWDSVLSNEEIRETGGAESCHI; The 320th amino acid to 359th amino acid of Human sapiens PTX3 (GI40)) | could effectively inhibit the number of spheres | could effectively inhibit the number of spheres | could effectively inhibit the number of spheres | no significant influence on the cell viability | could effectively inhibit the invasive cell numbers | could effectively inhibit the invasive cell numbers | could effectively inhibit the drug resistance | could effectively inhibit the drug resistance | could effectively inhibit the migrated cell numbers | could effectively inhibit the migrated cell numbers | could effectively inhibit the migrated cell numbers | could effectively inhibit the migrated cell numbers |
| RI37: artificially synthetic short peptide having the amino acid sequence listed as SEQ ID NO:1, designed from human PTX3 (NP_002843.2) (RPMRLESFSACIWVKATDVLNKTILFSYGTKRNPYEI; The 200th amino acid to 236th amino acid of Human sapiens PTX3 (RI37)) | could effectively inhibit the number of spheres | could effectively inhibit the number of spheres | could effectively inhibit the number of spheres | no significant influence on the cell viability | could effectively inhibit the invasive cell numbers | could effectively inhibit the invasive cell numbers | could effectively inhibit the drug resistance | could effectively inhibit the drug resistance | could effectively inhibit the migrated cell numbers | could effectively inhibit the migrated cell numbers | could effectively inhibit the migrated cell numbers | could effectively inhibit the migrated cell numbers |
| KT44: artificially synthetic peptide having the amino acid sequence listed as SEQ ID NO:3 (KLVAEAMVSLGRWTHLCGTWNSEEGLTSLWVNGELAATTVEMAT; The 255th amino acid to 298th amino acid of Human sapiens PTX3 (KT44)) | could not inhibit the number of spheres | could not inhibit the number of spheres | could not inhibit the number of spheres | no significant influence on the cell viability | could not inhibit the invasive cell numbers | could not inhibit the invasive cell numbers | could not significantly inhibit the drug resistance | could not significantly inhibit the drug resistance | could not inhibit the migrated cell numbers | could not inhibit the migrated cell numbers |  | could not inhibit the migrated cell numbers |
